Data reported in patent US12195434B2, “Process for the preparation of a chiral prostaglandin enol intermediate and intermediate compounds useful in the process” (EUROAPI HUNGARY LIMITED LIABILITY COMPANY, priority 2019, dated 2025).

Test: solubility of the PPB-enone isomers in crystallization solvents
Format: physicochemical
Experimental: The solubility (g/100 ml) of the PPB-enone isomers in some of the solvents with which crystallization was attempted is shown below: […]

solubility (DIPE, 23° C.)	solubility (DIPE, Reflux)	solubility (EtOH, 23° C.)	solubility (EtOH, Reflux)	solubility (MeOH, 23° C.)	solubility (MeOH, Reflux)	solubility (TBME, 23° C.)	solubility (TBME, Reflux)	solubility (iPrOH, 23° C.)	solubility (iPrOH, Reflux)	Compound
insoluble	in-	insoluble	0.77 g/100 ml	insoluble	0.91 g/100 ml	0.14 g/100 ml	0.33 g/100 ml	insoluble	0.80 g/100 ml	Cc1cccc(C(C)C(=O)/C=C/[C@@H]2[C@H]3CC(=O)O[C@H]3C[C@H]2OC(=O)c2ccc(-c3ccccc3)cc2)c1 (stereo partly drawn) [16-(R,S)-PPB-enone, [(3aR,4R,5R,6aS)-4-[(E)-4-(m-tolyl)-3-oxo-pent-1-enyl]-2-oxo-3,3a,4,5,6,6a-hexahydrocyclopenta[b]furan-5-yl] 4-phenylbenzoate]
in-	in-	0.43 g/100 ml	4.00 g/100 ml	0.45 g/100 ml	5.00 g/100 ml	0.71 g/100 ml	8.00 g/100 ml	0.18 g/100 ml	2.22 g/100 ml	Cc1cccc([C@@H](C)C(=O)/C=C/[C@@H]2[C@H]3CC(=O)O[C@H]3C[C@H]2OC(=O)c2ccc(-c3ccccc3)cc2)c1 [16-(R)-PPB-enone, [(3aR,4R,5R,6aS)-4-[(E,4R)-4-(m-tolyl)-3-oxo-pent-1-enyl]-2-oxo-3,3a,4,5,6,6a-hexahydrocyclopenta[b]furan-5-yl] 4-phenylbenzoate]
insoluble	0.2 g/100 ml	insoluble	0.33 g/100 ml	insoluble	0.33 g/100 ml	insoluble	0.13 g/100 ml	insoluble	0.29 g/100 ml	Cc1cccc([C@H](C)C(=O)/C=C/[C@@H]2[C@H]3CC(=O)O[C@H]3C[C@H]2OC(=O)c2ccc(-c3ccccc3)cc2)c1 [16-(S)-PPB-enone, [(3aR,4R,5R,6aS)-4-[(E,4S)-4-(m-tolyl)-3-oxo-pent-1-enyl]-2-oxo-3,3a,4,5,6,6a-hexahydrocyclopenta[b]furan-5-yl] 4-phenylbenzoate]
